Measurements: patent publication US9808004B2, “Synergistic combination to improve grape color and to alter sensory characteristics of wine” (Valent BioSciences Corporation, priority 2007, dated 2017)

Legend:
[1] = Quality of wine from treated Cabernet Sauvignon grapes (colour density, phenolics, tasting panel score); design: species or system grape; conditions: for Wine assessment: tasting panel score from 5 characteristics (color intensity, aroma intensity, body/fullness, flavor intensity, finish), 200 ppm of each compound at veraison
Procedure: (§1) A replicated field experiment was conducted on the red wine grape cultivar ‘Cabernet Sauvignon’ in the Riverland growing region of South Australia. The vineyard was 19 years old with a vine spacing of 3 m by 3 m. The plot size was nine vines/replicate with three replicates/treatment. […] Treatments were mixed with the adjuvant Agral 600 (10 mL/100 L v/v; CropCare Australasia, Pty Ltd.).

[2] = tested on: red table grape cultivar 'Crimson Seedless'; assay: Replicated field experiment on Crimson Seedless table grapes: colour development (harvestable clusters), firmness, berry weight, Brix; Synergy Index; conditions: for Firmness: at harvest; for Cumulative harvestable clusters: foliar, veraison plus seven days, Crimson Seedless; for Effect on cumulative harvestable cluster number (in words): applied alone, dose-dependent, 88 to 877 mg/vine; for Dose acting alone which produced the end point (QA, QB): end point 24.7 cumulative harvestable clusters
Source text: The vineyard was 12 years old and on overhead trellis with a vine spacing of 12 ft by 7 ft (518 vines/acre). Plot size was three vines/replicate, with six replicates/treatments. The area evaluated within each plot was one center vine and two half vines on each side for a total of two vines. Applications were made seven days after veraison (beginning of berry softening). On the day of application, red coloration was developing on about 10% of the berries. […] All treatments were mixed with the adjuvant Latron B-1956 (0.05% v/v; Dow AgroSciences LLC, Indianapolis, Ind.). Treatments were applied with a backpack mist blower at 200 gallons/acre (757 l/acre).
The total grape clusters were counted on the day of application. After treatment, the plots were evaluated weekly for color development by counting the number of harvestable colored grape clusters in each plot. All harvestable colored clusters were removed 79 days later to eliminate over-mature clusters. The number of harvestable colored grape clusters was expressed as cumulative harvestable clusters (number of harvestable clusters per two vines). Average berry firmness, weight and Brix (soluble solids) were evaluated 5 days later. Evaluation samples consisted of 10 second shoulders (second lateral branch of the main rachis) from 10 different clusters selected randomly from each plot. All berries in the evaluation samples were removed, counted, and weighed. A sub-sample of 20 to 30 berries was crushed for brix (soluble solids) analysis. Brix was measured with a handheld temperature compensating Leica Refractometer. An additional 10 berries were selected randomly for berry firmness. Berry firmness was determined by a hand held Wilson Penetrometer (0 to 1000 g) mounted on a stand with a 6 mm tip.
Synergy was determined by an industrially accepted method (Kull et al., 1961, Applied Microbiology 9:538-541 and Robertson and Ramesh, 1998, U.S. Pat. No. 5,716,629). Synergy Index=Qa/QA+Qb/QB where:
Qa=dose of compound A in mg/vine, in the mixture, which produced an end point
QA=dose of compound A in mg/vine, acting alone, which produced an end point.
Qb=[…] of compound B in mg/vine, in the mixture, which produced an end point.
QB=dose of compound B in mg/vine, acting alone, which produced an end point.
Synergy, additivity, or antagonism are shown when the Synergy Index is less than one, equal to one, or greater than one, respectively.

[3] = tested on: red wine grape cultivar 'Cabernet Sauvignon'; assay: Replicated field experiment on Cabernet Sauvignon wine grapes: grape quality at harvest; assay type: in vivo; conditions: 200 ppm of each compound applied, foliar at veraison
Procedure: as §1

[4] = 88 mg/vine of each compound applied
[5] = 292 mg/vine of each compound applied
[6] = 200 ppm of each compound applied, foliar at veraison, Cabernet Sauvignon

| Molecule | Wine assessment [1] | Wine assessment ([1]; listed as ethephon) | Firmness [2, 4] [g] | Cumulative harvestable clusters [2, 4] [no. per two vines] | Cumulative harvestable clusters [2, 5] [no. per two vines] | Firmness ([2]; 877 mg/vine) [g] | Cumulative harvestable clusters ([2]; 877 mg/vine) [no. per two vines] | Effect on cumulative harvestable cluster number (in words) [2] | Dose acting alone which produced the end point (QA, QB) [2] [mg/vine] | Anthocyanins, grapes at harvest [3] | Anthocyanins, grapes at harvest ([3]; listed as ABA) [mg/g] | Wine color density [1, 6] | Wine phenolics [1, 6] | Wine color density ([1]; 200 ppm of each compound applied, foliar at veraison, Cabernet Sauvignon, listed as ABA) | Wine assessment ([1]; listed as ABA) |
| --- | --- | --- | --- | --- | --- | --- | --- | --- | --- | --- | --- | --- | --- | --- | --- |
| O=P(O)(O)CCCl [Ethephon] | 2.3 | did not affect | 765 | 9.2 | 15.7 | 709 | 40.2 | increased | 484 |  |  |  |  |  |  |
| (S)-5-(1-hydroxy-2,6,6,-trimethyl-4-oxo-2-cyclohexen-1-yl)-3-methyl-(2Z,4E)-pentadienoic acid [S-ABA] | higher wine assessment score |  |  | 11.8 | 38.0 |  | 43.8 | increased | 337 | lower than in the untreated | 0.78 | lower than in the untreated | 20.2 | 5.6 | 2.7 |
